{
  "source": "paper PMC6054100",
  "about": "“Exploring the chemical space of the lysine-binding pocket of the first kringle domain of hepatocyte growth factor/scatter factor (HGF/SF) yields a new class of inhibitors of HGF/SF-MET binding” (Chemical Science, 2015)",
  "key": {"NK1 [1]": {"target": "T1, NK1 (Homo sapiens, UniProt P14210)", "T1 sequence (P14210 32-210 isoform P14210-6 limits assumed)": "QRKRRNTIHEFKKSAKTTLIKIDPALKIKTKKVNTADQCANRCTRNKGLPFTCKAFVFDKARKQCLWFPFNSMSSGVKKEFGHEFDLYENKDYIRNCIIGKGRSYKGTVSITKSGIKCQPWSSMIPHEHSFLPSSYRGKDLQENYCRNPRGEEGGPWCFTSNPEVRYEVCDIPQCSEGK", "test": "SPR steady-state binding to immobilized NK1 (Biacore T100)", "parameters": "made in house; host or cells: Pichia pastoris", "in_short": "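NK1 amine-coupled to a CM5 chip at 6000 RU; compound serial dilutions in PBS pH 7.4 with 0.05% Tween 20 injected at 30 μL min^–1, 1 min contact and 1 min dissociation. Binding constants derived from steady-state sensorgram analysis.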"}, "[2]": {"target": "T2, lysine-binding pocket of the kringle domain of NK1 (Homo sapiens, UniProt P14210)", "T2 construct": "made in house; host or cells: Pichia pastoris", "T2 sequence (P14210 32-210 isoform P14210-6 limits assumed)": "as above", "test": "Soaking into NK1 apo crystals, X-ray crystallography", "settings": "soaked into NK1 apo crystals", "procedure": "Next, three classes of piperazine-like sulphonated compounds containing piperazine ((H)EPPS and PIPES), morpholine (MES and MOPS), or cyclohexane (CHES and CAPS) rings were studied for their binding to NK1 (Table 1), alongside another five sulphonated compounds selected from a chemical fragment library (Table 2).\nNK1 buffered in 150 mM NaCl, 50 mM Tris, pH 7.5 (apo-NK1 and all soaking experiments) was concentrated to ∼20 mg mL^–1 using a Vivaspin device with a 10 kDa cut-off membrane (Sartorius Biolab). Crystallisation was carried out in Linbro plates by the vapour diffusion hanging drop technique using a protein : precipitant ratio of 1 : 1 at 20 °C. Previously NK1 has been crystallised in 18% PEG 4000, 200 mM sodium acetate and 150 mM Tris pH 8.5 as precipitant.[19] Here final crystallisation conditions (19% PEG 4000, 200 mM sodium acetate and 150 mM Tris pH 7.5) were optimised around those to achieve high-resolution apo structure. Details of compound soaking, X-ray data collection and structure determination are given in the ESI ^† section of the manuscript. […]\nFor this, 1 M stock solutions were prepared in DMSO (fragments) or water (piperazine- like compounds) and the pH adjusted to a value within their buffering range with either HCl or NaOH. The seven piperazine- like compounds and their respective pH are: HEPES (pH 7.6), (H)EPPS (pH 7.4), PIPES (pH 7.0), MES (pH 5.8), MOPS (pH 7.2), CHES (pH 8.6) and CAPS (pH 9.7). Secondary stocks of the compounds at 50 mM were prepared in the […]\nrespective mother liquor and soaked for up to 48 hours.\nMB605 was solubilised in 50% DMSO at 20 mM concentration (1% f inal DMSO concentration in the drop) in order to minimize adverse effects of DMSO on the protein crystal. 25% ethylene glycol was used as the cryoprotective agent.\nX-ray data collection and processing\nX-ray datasets were collected either at the European Synchrotron Radiation Facility (ESRF, Grenoble, France), the Diamond Light Source (DLS, Oxford, UK) or in-house using the X8 PROTEUM (Bruker AXS) at the Department of Biochemistry, University of Cambridge.\nDatasets of at least 180° were collected. Raw data collected at synchrotrons were integrated, merged, scaled and reduced using DENZO and […].2 Raw data […]\ncollected in- house were integrated, merged, scaled and reduced using the PROTEUM 2 software package .3 The CCP4 suite of crystallographic programs (Collaborative"}, "NK1 [3]": {"target": "T1, NK1", "test": "1H-15N TROSY-HSQC NMR chemical shift titration of 15N-labelled NK1", "type": "binding", "parameters": "made in house; host or cells: Pichia pastoris", "procedure": "Ligand screening was performed by monitoring the chemical shift variations in ^1H-^15N TROSY-HSQC NMR spectra of the uniformly [^15N]-labelled NK1 protein (Fragai et al. 2015, in prep.) upon the addition of increasing concentrations of the investigated compounds.[43]–[45] The experiments were performed using 0.18 mM protein samples in 25 mM Tris, 100 mM NaCl and 0.01% sodium azide, at pH 7.2 with 10% D2O. The spectra were recorded at 310 K on a Bruker AVANCE 900 MHz spectrometer equipped with a TXI cryo-probe. Sample solutions were prepared from 1 M or 100 mM DMSO stock solutions of the ligands. The dissociation constant values (KD) were calculated by plotting the weighted average ^1H and ^15N chemical shifts of the residues experiencing significant variations as a function of ligand concentration added during the titration and considering the one site binding model.[46]"}},
  "data": [
    {"smiles": "O=C(O)CCc1ccco1", "note": "[MB605]", "values": [
      {"measurement": "affinity for NK1 relative to HEPES", "setting": "NK1 [1]; fold better than HEPES", "result": "about ten times better affinity"},
      {"measurement": "Kd", "setting": "NK1 [1]; steady-state binding constant from SPR, fragment hits (Table 3, text), read-out: KD", "result": "310 ± 40", "unit": "µM"},
      {"measurement": "binding in the lysine-binding pocket (crystal structure)", "setting": "[2]", "result": "binds in the lysine-binding pocket"},
      {"measurement": "variation in chemical shifts for NK1 residues", "setting": "NK1 [3]; 1H-15N TROSY-HSQC, residues in and around the lysine-binding pocket", "result": "showed variation in chemical shifts"},
      {"measurement": "Kd", "setting": "NK1 [3]; NMR chemical shift titration, read-out: KD", "result": 110, "unit": "µM"}
    ]}
  ]
}
